Patent publication US20100021918A1, “METHOD FOR ASSAYING ACTION OF ANTITUMOR AGENT USING SPLICING DEFECTS AS INDEX” (Eisai R&D Management Co., Ltd., priority 2007, published 2010)

Test system: human colon carcinoma cell strain WiDr
Test: Microarray analysis (Human Exon 1.0 ST Array) of intron expression, Table 1
Format: cell-based
Conditions: six hours
Experimental: Using RNA purified from human colon carcinoma cell strain WiDr treated with 14 nM of (8E,12E,14E)-7-((4-cycloheptylpiperazin-1-yl)carbonyl)oxy-3,6,16,21-tetrahydroxy-6,10,12,16,20-pentamethyl-18,19-epoxytricosa-8,12,14-trien-11-olide (also referred to as “[…]”) for six hours, microarray analysis (Human Exon 1.0 ST Array: Affymetrix) was carried out. Not only does this array comprehensively cover the exons for all genes, but it is also designed to have probes for regions estimated as potential exons by a computer prediction program, which enables detection of the expression of the exons and introns of all genes in theory.
WiDr cells were first suspended in RPMI1640 medium (containing 10% FBS, penicillin, and streptomycin) and seeded in a 10 cm dish (2×10^6 cells/dish). After an overnight culture in an incubator with 5% carbon dioxide gas at 37° C., the medium was changed with medium containing 14 nM of (8E,12E,14E)-7-((4-cycloheptylpiperazin-1-yl)carbonyl)oxy-3,6,16,21-tetrahydroxy-6,10,12,16,20-pentamethyl-18,19-epoxytricosa-8,12,14-trien-11-olide or containing vehicle alone. After cultured for additional six hours, TRI reagent (SIGMA) were added to the cells and the cells were harvested. RNA was purified in accordance with the protocol of TRI reagent, followed by further purification with RNeasy (QIAGEN). Absorbance at 260 nm was measured to quantify an amount of RNA. This experiment was repeated three times and RNA samples (n=3) were prepared.
Ribosomal RNA was removed from 1 μg of each total RNA of control cells (n=3) and cells with the treatment (n=3) by using RiboMinus Human/Mouse Transcriptome Isolation Kit (Invitrogen). Single stranded cDNA synthesis, double stranded cDNA synthesis, cRNA synthesis, second single stranded cDNA synthesis, cDNA fragmentation, and cDNA labeling in order were carried out for the total RNA from which ribosomal RNA was removed, by using GeneChip Whole Transcript Sense Target Labeling and Control Reagents (Affymetrix) to make a cDNA probe. The cDNA probe was used for hybridization with Human Exon 1.0 ST Array (Affymetrix). The array was washed and stained, and luminescence intensity was measured by a scanner.
The expression level of the probe set and the gene was quantified by using Expression Console Ver. 1.0 (Affymetrix) with Summarization Method and Normalization Method being set to “Median polish as used in RMA” and “None”, respectively. The expression level of the probe was normalized with that of the gene. Welch's t-test was conducted for the treated group and the control group to determine a p value, which was converted into a q value by controlling False Discovery Ratio to pick out a significant probe set.
Probe sets showing that the q value was less than 1%; the normalized change in the level expression of the probe set in the group with the treatment was more than 10 times; the expression level of the probe set and the gene in the group with the treatment was more than 100; and probe set annotation was “extended, full, free”, were picked out and further arranged by gene. A gene was, when more than one probe sets therefor were found, determined as a candidate gene with increased expression level of the intron regions (Table 1). In Table 1, for the gene evaluated, gene name (Gene Name), abbreviated name (Gene Symbol), accession number (Accession), alias name (Synonym), transcription number in Human Exon 1.0 ST Array (Human Exon 1.0 ST Array), chromosome number (Chromosome), type of strand (Strand), start region (Start), stop region (Stop), and change in expression level (Fold Change) were respectively shown.

CCC(O)C(C)C1OC1CC(C)(O)/C=C/C=C(\C)C1OC(=O)CC(O)CCC(C)(O)C(OC(=O)N2CCN(C3CCCCCC3)CC2)/C=C/C1C (centres unmarked) [E7107, (8E,12E,14E)-7-((4-cycloheptylpiperazin-1-yl)carbonyl)oxy-3,6,16,21-tetrahydroxy-6,10,12,16,20-pentamethyl-18,19-epoxytricosa-8,12,14-trien-11-olide]
Fold Change (change in expression level, intron probe sets) ADRM1 (gene ADRM1, 14 nM): 13.51
Fold Change (change in expression level, intron probe sets) AK2 (gene AK2, 14 nM): 10.05
Fold Change (change in expression level, intron probe sets) ARFIP2 (gene ARFIP2, 14 nM): 12.04
Fold Change (change in expression level, intron probe sets) ARHGAP12 (gene ARHGAP12, 14 nM): 11.60
Fold Change (change in expression level, intron probe sets) ATP1B1 (gene ATP1B1, 14 nM): 12.11
Fold Change (change in expression level, intron probe sets) BAT2D1 (gene BAT2D1, 14 nM): 11.26
Fold Change (change in expression level, intron probe sets) BPTF (gene BPTF, 14 nM): 17.61
Fold Change (change in expression level, intron probe sets) BXDC2 (gene BXDC2, 14 nM): 25.94
Fold Change (change in expression level, intron probe sets) C6orf166 (gene C6orf166, 14 nM): 19.23
Fold Change (change in expression level, intron probe sets) C9orf86 // KIAA1984 (gene C9orf86 // KIAA1984, 14 nM): 13.66
Fold Change (change in expression level, intron probe sets) C10orf18 (gene C10orf18, 14 nM): 19.86
Fold Change (change in expression level, intron probe sets) C16orf80 (gene C16orf80, 14 nM): 16.25
Fold Change (change in expression level, intron probe sets) CABLES1 (gene CABLES1, 14 nM): 16.94
Fold Change (change in expression level, intron probe sets) CCND1 (gene CCND1, 14 nM): 12.66
Fold Change (change in expression level, intron probe sets) CCNL2 (gene CCNL2, 14 nM): 12.84
Fold Change (change in expression level, intron probe sets) CDC20 (gene CDC20, 14 nM): 18.22
Fold Change (change in expression level, intron probe sets) CENPL (gene CENPL, 14 nM): 14.13
Fold Change (change in expression level, intron probe sets) DCBLD2 (gene DCBLD2, 14 nM): 19.52
Fold Change (change in expression level, intron probe sets) DDEF2 (gene DDEF2, 14 nM): 22.92
Fold Change (change in expression level, intron probe sets) DKC1 (gene DKC1, 14 nM): 11.53
Fold Change (change in expression level, intron probe sets) DNAJB1 (gene DNAJB1, 14 nM): 11.95
Fold Change (change in expression level, intron probe sets) EIF2C2 (gene EIF2C2, 14 nM): 21.33
Fold Change (change in expression level, intron probe sets) EIF4A1 (gene EIF4A1, 14 nM): 16.15
Fold Change (change in expression level, intron probe sets) EIF5 (gene EIF5, 14 nM): 12.30
Fold Change (change in expression level, intron probe sets) FOXK2 (gene FOXK2, 14 nM): 18.79
Fold Change (change in expression level, intron probe sets) GNB2L1 (gene GNB2L1, 14 nM): 11.87
Fold Change (change in expression level, intron probe sets) GNL3 (gene GNL3, 14 nM): 14.08
Fold Change (change in expression level, intron probe sets) GTPBP4 (gene GTPBP4, 14 nM): 12.24
Fold Change (change in expression level, intron probe sets) HMGCS1 (gene HMGCS1, 14 nM): 13.21
Fold Change (change in expression level, intron probe sets) HSPA9 (gene HSPA9, 14 nM): 13.33
Fold Change (change in expression level, intron probe sets) HSPH1 (gene HSPH1, 14 nM): 15.12
Fold Change (change in expression level, intron probe sets) IDI1 (gene IDI1, 14 nM): 19.25
Fold Change (change in expression level, intron probe sets) ILF2 (gene ILF2, 14 nM): 13.79
Fold Change (change in expression level, intron probe sets) ITGB1 (gene ITGB1, 14 nM): 21.48
Fold Change (change in expression level, intron probe sets) JARID1C (gene JARID1C, 14 nM): 14.09
Fold Change (change in expression level, intron probe sets) KIAA0174 (gene KIAA0174, 14 nM): 19.65
Fold Change (change in expression level, intron probe sets) KIAA1429 (gene KIAA1429, 14 nM): 14.19
Fold Change (change in expression level, intron probe sets) KLHL18 (gene KLHL18, 14 nM): 15.00
Fold Change (change in expression level, intron probe sets) KRT18 (gene KRT18, 14 nM): 13.41
Fold Change (change in expression level, intron probe sets) LMO7 (gene LMO7, 14 nM): 14.34
Fold Change (change in expression level, intron probe sets) LTV1 (gene LTV1, 14 nM): 18.37
Fold Change (change in expression level, intron probe sets) MAT2A (gene MAT2A, 14 nM): 12.29
Fold Change (change in expression level, intron probe sets) MBNL2 (gene MBNL2, 14 nM): 28.86
Fold Change (change in expression level, intron probe sets) MYO1E (gene MYO1E, 14 nM): 14.49
Fold Change (change in expression level, intron probe sets) NET1 (gene NET1, 14 nM): 13.02
Fold Change (change in expression level, intron probe sets) NUPL1 (gene NUPL1, 14 nM): 12.63
Fold Change (change in expression level, intron probe sets) PUM2 (gene PUM2, 14 nM): 19.01
Fold Change (change in expression level, intron probe sets) RAF1 (gene RAF1, 14 nM): 16.41
Fold Change (change in expression level, intron probe sets) RIOK3 (gene RIOK3, 14 nM): 13.67
Fold Change (change in expression level, intron probe sets) RNF40 (gene RNF40, 14 nM): 15.84
Fold Change (change in expression level, intron probe sets) RSPRY1 (gene RSPRY1, 14 nM): 14.32
Fold Change (change in expression level, intron probe sets) SART3 (gene SART3, 14 nM): 15.13
Fold Change (change in expression level, intron probe sets) SLC2A1 (gene SLC2A1, 14 nM): 16.44
Fold Change (change in expression level, intron probe sets) SMAD3 (gene SMAD3, 14 nM): 12.88
Fold Change (change in expression level, intron probe sets) SMURF2 (gene SMURF2, 14 nM): 16.60
Fold Change (change in expression level, intron probe sets) SNX19 (gene SNX19, 14 nM): 17.12
Fold Change (change in expression level, intron probe sets) SPRED2 (gene SPRED2, 14 nM): 31.56
Fold Change (change in expression level, intron probe sets) ST3GAL1 (gene ST3GAL1, 14 nM): 12.77
Fold Change (change in expression level, intron probe sets) SUPV3L1 (gene SUPV3L1, 14 nM): 18.81
Fold Change (change in expression level, intron probe sets) TARDBP (gene TARDBP, 14 nM): 18.13
Fold Change (change in expression level, intron probe sets) TES (gene TES, 14 nM): 15.95
Fold Change (change in expression level, intron probe sets) TINF2 (gene TINF2, 14 nM): 11.05
Fold Change (change in expression level, intron probe sets) TJP1 (gene TJP1, 14 nM): 11.55
Fold Change (change in expression level, intron probe sets) UBE3A (gene UBE3A, 14 nM): 19.35
Fold Change (change in expression level, intron probe sets) USP47 (gene USP47, 14 nM): 12.32
Fold Change (change in expression level, intron probe sets) VIL2 (gene VIL2, 14 nM): 17.50
Fold Change (change in expression level, intron probe sets) WAC (gene WAC, 14 nM): 18.53
Fold Change (change in expression level, intron probe sets) WDR45L (gene WDR45L, 14 nM): 12.59
Fold Change (change in expression level, intron probe sets) WDR73 (gene WDR73, 14 nM): 30.61
Fold Change (change in expression level, intron probe sets) WDR74 (gene WDR74, 14 nM): 12.70
Fold Change (change in expression level, intron probe sets) WEE1 (gene WEE1, 14 nM): 12.26
Fold Change (change in expression level, intron probe sets) YTHDC1 (gene YTHDC1, 14 nM): 10.66
Fold Change (change in expression level, intron probe sets) ZNF384 (gene ZNF384, 14 nM): 12.13
Fold Change (change in expression level, intron probe sets) ZNF410 (gene ZNF410, 14 nM): 12.01
